From US7799791B2, “Tetrahydrofuro(3,2-B) pyrrol-3-one derivatives as inhibitors of cysteine proteinases” (Amura Therapeutics Limited, priority 2007, dated 2010)
Read-outs that look alike come from different tables or passages of the source.

What was measured:
[1] = target: T1, Human recombinant cathepsin K (Homo sapiens, UniProt P43235); experiment: In vitro cathepsin Ki inhibition measurements; format: biochemical
T1 construct: purchased B. Turk, Josef, Stefan Institute, Ljubljana, Slovenia
T1 sequence (P43235 115-329): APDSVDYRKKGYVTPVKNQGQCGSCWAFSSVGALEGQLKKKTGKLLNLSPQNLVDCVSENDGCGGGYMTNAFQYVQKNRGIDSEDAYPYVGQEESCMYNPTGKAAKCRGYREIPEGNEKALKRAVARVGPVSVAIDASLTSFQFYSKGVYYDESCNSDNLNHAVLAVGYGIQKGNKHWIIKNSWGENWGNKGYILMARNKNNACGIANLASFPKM
Procedure: Stock solutions of substrate or inhibitor were made up to 10 mM in 100% dimethylsulfoxide (DMSO) (Rathburns, Glasgow, U.K.) and diluted as appropriately required. In all cases the DMSO concentration in the assays was maintained at less than 1% (vol./vol.). The equilibrium inhibition constants (Ki^ss) for each compound were measured under steady-state conditions monitoring enzyme activity as a function of inhibitor concentration. The values were calculated on the assumption of pure competitive behaviour (Cornish-Bowden, A. Fundamentals of enzyme kinetics Portland Press; 1995, 93-128.). Human recombinant cathepsin K (0.25 nM final; B. Turk, Josef, Stefan Institute, Ljubljana, Slovenia), was routinely assayed in 100 mM sodium acetate; pH 5.5 containing 1 mM EDTA, 10 mM L-cysteine and 1.8 μM Z-Leu-Arg-AMC ([S]=KM).
The apparent inhibition constant (Ki) for each compound was determined on the basis that inhibition was reversible and occurred by a pure-competitive mechanism. The Ki values were calculated, from the dependence of enzyme activity as a function of inhibitor concentration, by direct regression analysis (Prism v 3.02) using Equation 2 (Comish-Bowden, A., 1995.).
In situations where the apparent dissociation constant (Ki^app) approached the enzyme concentrations, the Ki^app values were calculated using a quadratic solution in the form described by Equation 3 (Morrison, J. F. Trends Biochem. Sci., 7, 102-105, 1982; Morrison, J. F. Biochim. Biophys. Acta. 185, 269-286, 1969; Stone, S. R. and Hofsteenge, J. Biochemistry, 25, 4622-4628, 1986).
Curves were fitted by non-linear regression analysis (Prism) using a fixed value for the enzyme concentration. Equation 4 was used to account for the substrate kinetics, where ‘Ki’ is the inhibition constant, ‘[So]’ is the initial substrate concentration and ‘KM^app’ is the apparent macroscopic binding (Michaelis) constant for the substrate (Morrison, 1982).

[2] = Plasma incubations (human plasma stability); format: in vitro ADME; conditions: 37° C., 25 μM, percent remaining at 1 hour
Procedure: Human and rat plasma were purchased from Innovative Research Inc. (Southfield. Mich., USA). […] Aliquots were removed at 2 and 60 minutes and quenched with an equal volume of cold acetonitrile. After mixing vigorously, the precipitated protein matter was removed by filtration (Multiscreen Solvinert filter plates, Millipore, Bedford, Mass., USA) and the filtrate analysed by reverse phase HPLC with mass spectrometric detection, using single ion monitoring of the [M+H]^+ species. Metabolic turnover was determined by comparison of peak areas from the ion chromatograms of the parent compound at 2 and 60 minutes and expressed as percent remaining at 1 hour.

[3] = Table 1, read-out: In vitro Ki (nM) vs Cath K
[4] = prior art WO-A-02057270 examples, Table 2, read-out: Ki (nM) vs Human Cathepsin K

Ki [1, 3] [nM] | Human Plasma Stability % rem. @ 1 h [2] [%] | Ki [1, 4] [nM] | Compound
1.9 | 98.2 |  | CO[C@@H]1CN(C(=O)[C@@H](NC(=O)c2ccc(-c3csc(N4CCN(C)CC4)n3)cc2)C2CCCC2)[C@@H]2C(=O)CO[C@@H]21 [Example 2, N-((S)-1-cyclopentyl-2-((3aS,6R,6aS)-6-methoxy-3-oxodihydro-2H-furo[3,2-b]pyrrol-4(5H,6H,6aH)-yl)-2-oxoethyl)-4-(2-(4-methylpiperazin-1-yl)thiazol-4-yl)benzamide]
1.7 | 92.6 |  | CC(C)C[C@H](NC(=O)c1ccc(-c2csc(N3CCN(C)CC3)n2)cc1)C(=O)N1CC[C@H]2OCC(=O)[C@H]21 [Example 3, N-((S)-4-methyl-1-oxo-1-((3aS,6aR)-3-oxodihydro-2H-furo[3,2-b]pyrrol-4(5H,6H,6aH)-yl)pentan-2-yl)-4-(2-(4-methylpiperazin-1-yl)thiazol-4-yl)benzamide]
 |  | > 50000 | N-((S)-1-cyclopentyl-2-((3aS,6R,6aS)-6-methoxy-3-oxodihydro-2H-furo[3,2-b]pyrrol-4(5H,6H,6aH)-yl)-2-oxoethyl)-4-(2-(4-methylpiperazin-1-yl)thiazol-4-yl)benzamide [Example 2]
 |  | > 4000 | N-((S)-4-methyl-1-oxo-1-((3aS,6aR)-3-oxodihydro-2H-furo[3,2-b]pyrrol-4(5H,6H,6aH)-yl)pentan-2-yl)-4-(2-(4-methylpiperazin-1-yl)thiazol-4-yl)benzamide [Example 3]
1.3 | 82.5 |  | CN1CCN(c2nc(-c3ccc(C(=O)N[C@H](C(=O)N4CC[C@H]5OCC(=O)[C@H]54)C4CCCC4)cc3)cs2)CC1 [Example 5, N-((S)-1-cyclopentyl-2-oxo-2-((3aS,6aR)-3-oxodihydro-2H-furo[3,2-b]pyrrol-4(5H,6H,6aH)-yl)-2-oxoethyl)-4-(2-(4-methylpiperazin-1-yl)thiazol-4-yl)benzamide]
1.7 | 91.9 |  | CN1CCN(c2nc(-c3ccc(C(=O)N[C@@H](CC(C)(C)C)C(=O)N4CC[C@H]5OCC(=O)[C@H]54)cc3)cs2)CC1 [Example 4, N-((S)-4,4-dimethyl-1-oxo-1-((3aS,6aR)-3-oxodihydro-2H-furo[3,2-b]pyrrol-4(5H,6H,6aH)-yl)pentan-2-yl)-4-(2-(4-methylpiperazin-1-yl)thiazol-4-yl)benzamide]
87.4 | 75 |  | CC(C)C[C@H](NC(=O)c1ccc(C(C)(C)C)cc1)C(=O)N1CC[C@H]2OCC(=O)[C@H]21 [Prior art compound 23, reference compound]
1.4 | 100 |  | CO[C@H]1CN(C(=O)[C@@H](NC(=O)c2ccc(-c3csc(N4CCN(C)CC4)n3)cc2)C2CCCC2)[C@@H]2C(=O)CO[C@H]12 [Example 1, N-((S)-1-cyclopentyl-2-((3aS,6S,6aS)-6-methoxy-3-oxodihydro-2H-furo[3,2-b]pyrrol-4(5H,6H,6aH)-yl)-2-oxoethyl)-4-(2-(4-methylpiperazin-1-yl)thiazol-4-yl)benzamide]
